Data as given in patent US10800778B2 (Entasis Therapeutics Limited, priority 2016, dated 2020).
pIC50: −log10 of the molar value. Where a name gives a salt, the structure may show the parent alone.

What was measured:
[1] = Stability/conversion of esters in human intestinal S9; type: in vitro ADME; settings: s9, pH 7.4, read-out: T1/2 Human Intestinal S9
Outline: (§1)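 Esters at 10 μM incubated at 37 °C with 0.8 mg/mL S9 (human intestinal without PMSF, rat liver or rat intestinal) or no enzyme, in 100 mM HEPES pH 7.4; sampled 0–60 min. LC-MS/MS tracked ester and hydrolysed active; first-order T1/2 from ester disappearance.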

[2] = Stability/conversion of esters in rat liver S9; type: in vitro ADME; settings: s9, pH 7.4, read-out: T1/2 Rat Liver S9
Outline: as §1

[3] = tested on: E. coli ARC2687 (AmpC, CTX-M-14); experiment: Mouse neutropenic thigh infection model, oral efficacy of cefpodoxime proxetil with Example 35; type: in vivo
Protocol: The oral in vivo efficacy of Example 35 was evaluated in combination with cefpodoxime proxetil in a mouse neutropenic thigh infection model versus a relevant clinical isolate. […] CD-1 mice (Charles River, Wilmington US) were housed in shoebox type cages with contact bedding and acclimated to the facility for a minimum of 2 days prior to use. The animal room was maintained at 70° F., with 50+/−10% relative humidity and a 12-hour light/dark cycle. The study was conducted using an IACUC-approved protocol in accordance with Title 9 of the Code of Federal Regulations. Animals were rendered neutropenic with two intraperitoneal doses of cyclophosphamide (150 mg/kg—4 days and 100 mg/kg—1 day prior to infection (Gerber et al. (1983) J Infect Dis 147(5); 910-917)). Animals were infected via an intramuscular challenge of ˜1×10^6 CFU administered within 100 μL of 0.9% saline. The inoculum was prepared from a 25 mL overnight culture of E. coli ARC 2687 in tryptic soy broth media. Following an OD600 determination, the inoculum was diluted in 0.9% saline to a concentration of […] prior to inoculation into the left and right thigh. Oral therapy with cefpodoxime proxetil alone and in combination with Example 35 was initiated 2 hours post bacterial challenge. Doses were suspended in 0.5% HPMC/0.1% Tween 80 and administered by oral gavage at a dose volume of 10 mL/kg. A terminal endpoint was obtained at 24 hr to determine bacterial counts in thigh tissue (CFU/gm). Animals were ethically euthanized, thighs were asceptically removed, weighed and homogenized in 1 mL of saline. Bacterial burden enumeration of tissue homogenate was performed by serial dilution on tryptic soy agar plates which were incubated overnight at 37° C. prior to colony (CFU) counting. The lower limit of detection was ˜2.6 log10 CFU/gm of tissue.

[4] = Stability/conversion of esters in rat intestinal S9; type: in vitro ADME; settings: s9, pH 7.4, read-out: T1/2 Rat Intestinal S9
Outline: as §1

[5] = Stability/conversion of esters in human liver S9; type: in vitro ADME; settings: s9, pH 7.4, read-out: T1/2 Human Liver S9
Outline: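 Ester test compounds (10 μM) were incubated at 37° C with human liver S9 at 0.8 mg/mL in 100 mM HEPES buffer, pH 7.4. Aliquots taken from 0 to 60 min were quenched in acetonitrile containing carbutamide internal standard, centrifuged, and analyzed by LC-MS/MS MRM; first-order half-lives came from loss of the parent ester.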

[6] = Rat PK, intravenous and oral; type: in vivo, Sprague-Dawley rats
Protocol: Intravenous rat pharmacokinetics of exemplar compounds were determined in jugular vein cannulated Sprague-Dawley rats (n=3) (Harlan Laboratories, Indianapolis, Ind.) at a dose of 10 mg/kg. Compounds were dissolved and administered intravenously in 0.9% saline, pH 6.5 at a dose volume of 2 mL/kg. […] Oral pharmacokinetic studies were conducted with exemplar compounds at 10 mg/kg equivalents of carboxylic acids. Doses were dissolved and administered orally in 25:75 PEG400: water for injection, pH 4.5 at a dose volume of 10 mL/kg. […] Plasma samples were stored at −80° C. prior to bioanalysis.
Plasma samples were thawed on ice prior to processing. Samples (30 μL) were diluted and proteins precipitated with 180 μL of acetonitrile containing 0.1% formic acid and 250 ng/mL of carbutamide (N1-(butylcarbanoyl)-sulfanilamide, Sigma-Aldrich Catalog # S385433) as an internal standard. Samples were vortexed for 30 seconds, centrifuged at 3400 g for 10 minutes and the supernatant transferred to injection vials.
LC/MS/MS analysis was completed on an AB Sciex QTrap 6500 mass spectrometer in positive ionization mode, coupled to a Schimadzu Nexera LC system. A Waters Atlantis T3 (3 μm, 3.0×50 mm) column was used for chromatographic separation. Injection volume was […] The mobile phase consisted 0.1% formic acid in water (A) and 0.1% formic acid in acetonitrile (B), with a gradient of 2-98% B:A over two minutes.
Plasma concentration vs. time profiles following intravenous (IV) administration and oral (PO) administration of exemplar compounds were analyzed by non-compartment analysis using WinNonLin 6.4.

[7] = Stability in pH 7.4 buffer (no enzyme); type: physicochemical; settings: buffer, read-out: T1/2 pH 7.4 Buffer
Outline: as §1

[8] = tested on: E. coli ARC2687 (AmpC, CTX-M-14); experiment: Mouse neutropenic thigh infection model, oral efficacy of cefpodoxime proxetil with Example 35; type: in vivo; remark: listed apart in the source
[9] = tested on: C. freundii AmpC, TEM-1, CMY65; experiment: MIC, CLSI broth microdilution, beta-lactam with or without BLI; type: cell-based
Protocol: (§2) The minimal inhibitory concentration (MIC) values against each organism and drug combination were determined using the Clinical and Laboratory Standards Institute guidelines (CLSI) broth microdilution methodology (CLSI M07-A10). The recommended quality control (QC) bacterial strains E. coli ATCC 25922, E. coli ATCC 35218 and Klebsiella pneumoniae ATCC 700603 were incorporated into each test according to the CLSI guidelines to assure that there was no variation between test dates (CLSI M100-S25). The MICs of these QC strains were within QC range on all test occasions. Drug containing plates were made using the master plate method. A cefpodoxime solution was prepared to 20× concentration and 2-fold serial dilutions were made in cation adjusted Mueller-Hinton Broth. Equal volumes of 20× examplar compounds at a fixed concentration were added to the master plate. 10 uL was stamped into daughter plates using a Tecan EVO robot. Organism suspensions were adjusted to a 0.5 McFarland standard and further diluted to yield a final inoculum between 3×10^5 and 7×10^5 colony-forming units (CFU)/mL. Bacterial inocula were made in sterile, cation adjusted Mueller-Hinton Broth (Beckton Dickinson). An inoculum volume of 1.1× concentration of 90 uL was added to wells (using a Tecan EVO robot). All inoculated microdilution plates were incubated in ambient air at 35° C. for 18-24 hours.
(§3) Following the procedure from Example 103, MICs were determined for several beta-lactams in presence of a fixed concentration (4 μg/mL) of exemplar compounds (Table 3) against 3 Enterobacteriaceae strains.

[10] = tested on: Klebsiella pneumoniae SHV-18, OXA-2, OKP-6 (ATCC 700603); experiment: as above; type: cell-based
Protocol: as §2, §3

E. coli WT (ATCC 25922) = experiment: as above; type: cell-based
Protocol: as §2, §3

[11] = biological target: OXA-48 (Class D beta-lactamase) (Klebsiella pneumoniae, UniProt Q6XEC0); experiment: Inhibition of beta-lactamase enzymes (nitrocefin hydrolysis), OXA-48; type: biochemical; settings: read-out: Class D OXA-48 60 min IC50, nitrocefin 100 μM
OXA-48 (Class D beta-lactamase), sequence (Q6XEC0 whole entry, looked up, species assumed): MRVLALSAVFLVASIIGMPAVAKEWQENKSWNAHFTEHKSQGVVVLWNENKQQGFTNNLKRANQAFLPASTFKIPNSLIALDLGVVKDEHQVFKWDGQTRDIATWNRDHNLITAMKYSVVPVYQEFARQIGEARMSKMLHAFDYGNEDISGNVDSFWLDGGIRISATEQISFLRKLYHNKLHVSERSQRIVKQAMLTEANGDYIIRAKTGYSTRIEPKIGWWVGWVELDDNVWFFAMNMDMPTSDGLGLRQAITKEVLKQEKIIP
Outline: (§4)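 Nitrocefin (100 μM) hydrolysis followed at 490 nm for 1 h in 0.1 M sodium phosphate pH 7.0, 10 mM NaHCO3, 0.005% Triton X-100, with 3-fold inhibitor dilutions from 100 μM to 62.7 pM. Progress curves fitted globally to give kinact/Ki or Ki; percent inhibition from best-fit absorbance fitted with Hill equation.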

[12] = biological target: TEM-1 (Class A beta-lactamase) (Escherichia coli, UniProt P62593); experiment: Inhibition of beta-lactamase enzymes (nitrocefin hydrolysis), TEM-1; type: biochemical; settings: read-out: Class A TEM-1 60 min IC50, nitrocefin 100 μM
TEM-1 (Class A beta-lactamase), sequence (P62593 whole entry, looked up, species assumed): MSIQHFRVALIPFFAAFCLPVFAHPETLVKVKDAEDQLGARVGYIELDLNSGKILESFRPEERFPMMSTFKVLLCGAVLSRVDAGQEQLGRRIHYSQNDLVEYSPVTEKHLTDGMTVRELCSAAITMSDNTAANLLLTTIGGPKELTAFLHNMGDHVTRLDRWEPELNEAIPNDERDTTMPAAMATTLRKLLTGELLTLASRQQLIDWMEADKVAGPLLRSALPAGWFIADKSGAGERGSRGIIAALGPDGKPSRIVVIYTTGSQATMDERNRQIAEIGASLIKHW
Outline: as §4

[13] = tested on: E. coli ARC2687 (AmpC, CTX-M-14); experiment: Cefpodoxime MIC against clinical isolate E. coli ARC2687; type: cell-based
[14] = tested on: E. coli AmpC, OXA-1, CTX-M-15, TEM-1; experiment: MIC, CLSI broth microdilution, cefpodoxime with or without BLI; type: cell-based; settings: Escherichia coli, read-out: MIC of beta-lactam alone, heading: MIC of beta-lactam alone, no BLI
Protocol: as §2

[15] = BLI at fixed 4 μg/ml, K. pneumoniae ATCC 700603

CC1=C[C@@H](C(N)=O)N2C[C@@H]1N(O[C@H](F)C(=O)OC(C)C)C2=O [Example 35, (2R)-isopropyl 2-(((2S,5R)-2-carbamoyl-4-methyl-7-oxo-1,6-diazabicyclo[3.2.1]oct-3-en-6-yl)oxy)-2-fluoroacetate]
half-life at 10 μM [1]: 2.72 h
half-life at 10 μM [2]: 0.533 h
maximal kill relative to initiation of therapy ([3]; 50 mg/kg cefpodoxime proxetil + 100 mg/kg Example 35 q6h, oral, 24 hr): −0.75 log10 CFU/gm
log10CFU/gm thigh ([3]; Example 35 alone 10 mg/kg PO/q6h, mouse neutropenic thigh, E. coli ARC2687): 9.56 log10CFU/gm thigh
CFU Change from 26 hr ([3]; Example 35 alone 10 mg/kg PO/q6h, relative to 26 hr growth control): −1.30 log10 CFU/gm
CFU Change from 2 hr ([3]; Example 35 alone 10 mg/kg PO/q6h, relative to initiation of therapy): +3.29 log10 CFU/gm
growth of bacterial burden in thighs after 24 hours of therapy ([3]; Example 35 alone at 10 mg/kg q6h, oral, neutropenic CD-1 mice): greater than 3 log10 CFU/gm
effect of increasing dose on bacterial burden ([3]; in combination with cefpodoxime proxetil 50 mg/kg q6h, oral): dose dependent reduction of bacterial burden
half-life at 10 μM [4]: 4 h
half-life at 10 μM [5]: 0.65 h
Circulating concentrations of the ester in plasma ([6]; rat plasma, LC/MS/MS): Rapid hydrolysis precluded satisfactory analysis of circulating concentrations
half-life at 10 μM [7]: 3.1 h

C[C@@H](O)[C@H]1C(=O)N2C(C(=O)O)=C(S[C@@H]3CN[C@H](C(=O)N(C)C)C3)[C@H](C)[C@H]12 [Meropenem]
reduction in CFU relative to initiation of therapy ([8]; 600 mg/kg q6h administered subcutaneously, positive control): over 1 log10
log10CFU/gm thigh ([8]; Meropenem 600 mg/kg SC/q6h, positive control, mouse neutropenic thigh, E. coli ARC2687): 5.17 log10CFU/gm thigh
CFU Change from 26 hr ([8]; Meropenem 600 mg/kg SC/q6h, relative to 26 hr growth control): −5.69 log10 CFU/gm
CFU Change from 2 hr ([8]; Meropenem 600 mg/kg SC/q6h, relative to initiation of therapy): −1.10 log10 CFU/gm

CC1=C[C@@H](C(N)=O)N2C[C@@H]1N(O[C@H](F)C(=O)O)C2=O [Example 33, (2R)-2-(((2S,5R)-2-carbamoyl-4-methyl-7-oxo-1,6-diazabicyclo[3.2.1]oct-3-en-6-yl)oxy)-2-fluoroacetic acid lithium salt]
MIC of cefixime in presence of BLI ([9]; BLI at fixed 4 μg/ml): ≤0.06 µg/mL
MIC of cefuroxime in presence of BLI ([9]; BLI at fixed 4 μg/ml): <0.03125 µg/mL
MIC of faropenem in presence of BLI ([9]; BLI at fixed 4 μg/ml): ≤0.06 µg/mL
MIC of tebipenem in presence of BLI ([9]; BLI at fixed 4 μg/ml): ≤0.06 µg/mL
MIC of cefixime in presence of BLI [10, 15]: ≤0.06 µg/mL
MIC of cefuroxime in presence of BLI [10, 15]: 4 µg/mL
MIC of faropenem in presence of BLI [10, 15]: 0.5 µg/mL
MIC of tebipenem in presence of BLI [10, 15]: 0.125 µg/mL
MIC of cefixime in presence of BLI (E. coli WT (ATCC 25922); BLI at fixed 4 μg/ml): ≤0.06 µg/mL
MIC of cefuroxime in presence of BLI (E. coli WT (ATCC 25922); BLI at fixed 4 μg/ml): <0.03125 µg/mL
MIC of faropenem in presence of BLI (E. coli WT (ATCC 25922); BLI at fixed 4 μg/ml): ≤0.06 µg/mL
MIC of tebipenem in presence of BLI (E. coli WT (ATCC 25922); BLI at fixed 4 μg/ml): ≤0.06 µg/mL
pIC50 [11]: 7.11
pIC50 [12]: 8.49
cefpodoxime MIC in combination with BLI ([13]; BLI at 4 μg/mL): < 0.03 µg/mL
AUC ([6]; Sprague-Dawley, plasma, rat, IV 10 mg/kg, analyte = compound administered): 26.3 µM·h

COCC1=C(C(=O)O)N2C(=O)[C@@H](NC(=O)/C(=N\OC)c3csc(N)n3)[C@H]2SC1 [Cefpodoxime, reference compound]
MIC [14]: > 64 µg/mL
MIC ([9]; Citrobacter freundii, read-out: MIC of beta-lactam alone, no BLI, heading: MIC of beta-lactam alone): > 64 µg/mL
MIC of beta-lactam alone ([9]; no BLI): >64 µg/mL
MIC ([10]; Klebsiella pneumoniae, ATCC700603, no BLI, K. pneumoniae SHV-18, OXA-2, OKP-6 (ATCC 700603), read-out: MIC of beta-lactam alone): 16 µg/mL
MIC (E. coli WT (ATCC 25922); Escherichia coli, ATCC25922, no BLI, read-out: MIC of beta-lactam alone): 1 µg/mL
MIC ([13]; Escherichia coli, cefpodoxime alone): > 512 µg/mL
